Patent EP1202975B1, “SUBSTITUTED POLYCYCLIC ARYL AND HETEROARYL PYRAZINONES USEFUL FOR SELECTIVE INHIBITION OF THE COAGULATION CASCADE” (Pharmacia Corporation, priority 1999, dated 2000)
Like-named read-outs stand apart in the source and are kept apart here.

Tests used:
Human factor Xa = Human factor Xa (Homo sapiens, UniProt P00742)
TF-VIIa = biological target: T1, TF-VIIa (Homo sapiens, UniProt P08709); test: TF-VIIa Assay; type: biochemical
T1 construct: 2nM recombinant human factor VIIa; purchased American Diagnostica, Greenwich CT; host or cells: soluble TF made in house in E. coli

[1] = read-out: IC50 or % Inhibition TF-VIIa (30 µM); cells given as a plain number (IC50)
[2] = cells given as a plain number (IC50); read-out: IC50 or % Inhibition TF-VIIa (30 µM)
[3] = read-out: IC50 or % Inhibition TF-VIIa (30 µM); cells without % sign: IC50
[4] = cells without % sign: IC50; read-out: IC50 or % Inhibition TF-VIIa (30 µM)

Human factor Xa, sequence (P00742 235-488 limits assumed): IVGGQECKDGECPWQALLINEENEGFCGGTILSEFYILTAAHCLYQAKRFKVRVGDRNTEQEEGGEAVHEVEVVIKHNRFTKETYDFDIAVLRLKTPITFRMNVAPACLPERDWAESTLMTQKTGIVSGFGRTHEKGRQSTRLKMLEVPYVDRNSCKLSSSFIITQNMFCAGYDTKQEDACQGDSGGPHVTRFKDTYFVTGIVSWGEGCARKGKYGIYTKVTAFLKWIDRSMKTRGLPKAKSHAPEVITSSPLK
Human factor Xa, sequence (P00742 41-179 limits assumed): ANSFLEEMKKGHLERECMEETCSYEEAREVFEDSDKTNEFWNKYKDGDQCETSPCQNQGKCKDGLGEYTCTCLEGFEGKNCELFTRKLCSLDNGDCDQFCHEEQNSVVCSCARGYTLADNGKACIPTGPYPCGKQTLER
T1 sequence (P08709 213-466 limits assumed): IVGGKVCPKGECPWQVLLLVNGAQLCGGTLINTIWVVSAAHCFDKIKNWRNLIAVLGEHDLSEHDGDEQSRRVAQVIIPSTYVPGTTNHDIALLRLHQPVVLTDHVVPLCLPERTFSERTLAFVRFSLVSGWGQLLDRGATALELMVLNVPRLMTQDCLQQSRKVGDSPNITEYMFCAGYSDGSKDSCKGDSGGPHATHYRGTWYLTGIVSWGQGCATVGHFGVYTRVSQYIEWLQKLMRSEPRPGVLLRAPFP
T1 sequence (P08709 61-212 limits assumed): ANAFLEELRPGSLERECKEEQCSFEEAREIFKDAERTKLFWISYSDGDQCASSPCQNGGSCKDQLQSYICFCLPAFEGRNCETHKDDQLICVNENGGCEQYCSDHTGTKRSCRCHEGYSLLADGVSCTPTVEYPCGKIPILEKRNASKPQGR
T1 sequence (P13726 33-251 partner limits assumed): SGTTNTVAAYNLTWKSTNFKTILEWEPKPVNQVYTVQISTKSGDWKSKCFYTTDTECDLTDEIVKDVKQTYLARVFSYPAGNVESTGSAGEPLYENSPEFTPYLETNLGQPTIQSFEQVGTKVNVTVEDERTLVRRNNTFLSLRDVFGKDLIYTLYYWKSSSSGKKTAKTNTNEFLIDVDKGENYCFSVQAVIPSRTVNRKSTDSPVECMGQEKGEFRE

SMILES | IC50 or % Inhibition Factor Xa (30 µM) (Human factor Xa) | IC50 (TF-VIIa; [1]) [nM] | further results
N=C(N)c1ccc(CNC(=O)C(Cc2ccccc2)n2c(-c3ccccc3)c(Cl)nc(NCCc3ccccc3)c2=O)cc1 (stereo not shown) [1517-14] | 0% |  | IC50 or % Inhibition TF-VIIa (30 µM) (TF-VIIa): 30%
C[C@@H](C(=O)NCc1ccc(C(=N)N)cc1)n1c(-c2ccccc2)c(Cl)nc(NCCc2ccccc2)c1=O [1517-15] | 0% | 3100 | 
CSCC(C(=O)NCc1ccc(C(=N)N)cc1)n1c(-c2ccccc2)c(Cl)nc(NCCc2ccccc2)c1=O (stereo not shown) [1517-16] | 0% | 3400 | 
C[C@H](C(=O)NCc1ccc(C(=N)N)cc1)n1c(-c2ccccc2)c(Cl)nc(NCCc2ccccc2)c1=O [1517-17] | 0% | 1800 | 
N=C(N)c1ccc(CNC(=O)Cn2c(-c3c(Cl)cccc3Cl)c(Cl)nc(NCCc3ccccc3)c2=O)cc1 [1517-18] | 0% | 1300 | 
N=C(N)c1ccc(CNC(=O)Cn2c(-c3ccsc3)c(Cl)nc(NCCc3cccc(Cl)c3)c2=O)cc1 [1517-19] | 0% | 900 | 
N=C(N)c1ccc(CNC(=O)C(Cc2ccccc2)n2c(-c3ccccc3)c(Cl)nc(NCCc3cccc(Cl)c3)c2=O)cc1 (stereo not shown) [1517-20] | 0% |  | IC50 or % Inhibition TF-VIIa (30 µM) (TF-VIIa): 22%
C[C@H](C(=O)NCc1ccc(C(=N)N)cc1)n1c(-c2ccccc2)c(Cl)nc(NCCc2cccc(Cl)c2)c1=O [1517-23] | 0% | 2300 | 
N=C(N)c1ccc(CNC(=O)Cn2c(-c3c(Cl)cccc3Cl)c(Cl)nc(NCCc3cccc(Cl)c3)c2=O)cc1 [1517-24] | 0% | 1800 | 
N=C(N)c1ccc(CNC(=O)Cn2c(-c3ccccc3)c(Cl)nc(NC3CCCCC3)c2=O)cc1 [1517-25] | 0% |  | IC50 (TF-VIIa; [2]): 1400 nM
CCCC(CCC)Nc1nc(Cl)c(-c2ccccc2)n(CC(=O)NCc2ccc(C(=N)N)cc2)c1=O [1517-26] | 0% |  | IC50 (TF-VIIa; [2]): 1800 nM
CC(C)N(C)c1nc(Cl)c(-c2ccccc2)n(CC(=O)NCc2ccc(C(=N)N)cc2)c1=O [1517-31] | 0% |  | IC50 (TF-VIIa; [2]): 9100 nM
CCCNc1nc(Cl)c(-c2ccccc2)n(CC(=O)NCc2ccc(C(=N)N)cc2)c1=O [1517-33] | 0% |  | IC50 (TF-VIIa; [2]): 400 nM
C[Si](C)(C)CNc1nc(Cl)c(-c2ccccc2)n(CC(=O)NCc2ccc(C(=N)N)cc2)c1=O [1517-36] | 0% | 3000 | 
N=C(N)c1ccc(CNC(=O)Cn2c(-c3ccccc3)c(Cl)nc(NCC3CC3)c2=O)cc1 [1517-43] | 0% |  | IC50 or % Inhibition TF-VIIa (30 µM) (TF-VIIa): 25%
CCCCCNc1nc(Cl)c(-c2ccccc2)n(CC(=O)NCc2ccc(C(=N)N)cc2)c1=O [1517-48] | 0% | 1200 | 
N=C(N)c1ccc(CNC(=O)Cn2c(-c3cccc(N)c3)c(Cl)nc(NCCN3CCCC3)c2=O)cc1 [1543-03] | 34% |  | IC50 (TF-VIIa; [3]): 640 nM
CNc1nc(Cl)c(-c2cccc(N)c2)n(CC(=O)NCc2ccc(C(=N)N)cc2)c1=O [1543-05] | 14% |  | IC50 (TF-VIIa; [4]): 60 nM
N=C(N)c1ccc(CNC(=O)Cn2c(-c3cccc(N)c3)c(Cl)nc(NCCCn3ccnc3)c2=O)cc1 [1543-07] | 19% |  | IC50 (TF-VIIa; [3]): 210 nM
CN(C)CCNc1nc(Cl)c(-c2cccc(N)c2)n(CC(=O)NCc2ccc(C(=N)N)cc2)c1=O [1543-09] | 12% |  | IC50 (TF-VIIa; [4]): 690 nM
N=C(N)c1ccc(CNC(=O)Cn2c(-c3cccc(N)c3)c(Cl)nc(NCCCO)c2=O)cc1 [1543-13] | 12% |  | IC50 (TF-VIIa; [4]): 90 nM
N=C(N)c1ccc(CNC(=O)Cn2c(-c3cccc(N)c3)c(Cl)nc(NCCN3CCCCC3)c2=O)cc1 [1543-15] | 41% |  | IC50 (TF-VIIa; [3]): 950 nM
CC(CNc1nc(Cl)c(-c2cccc(N)c2)n(CC(=O)NCc2ccc(C(=N)N)cc2)c1=O)N(C)C (stereo not shown) [1543-19] | 11% |  | IC50 (TF-VIIa; [3]): 220 nM
N=C(N)c1ccc(CNC(=O)Cn2c(-c3cccc(N)c3)c(Cl)nc(NCCCCN3CCCC3)c2=O)cc1 [1543-21] | 27% |  | IC50 (TF-VIIa; [3]): 290 nM

SMILES | IC50 or % Inhibition Factor Xa (30 µM) (Human factor Xa) | IC50 (TF-VIIa; [1]) [nM] | further results
N=C(N)c1ccc(CNC(=O)Cn2c(-c3cccc(N)c3)c(Cl)nc(NCCCN3CCCC3)c2=O)cc1 [1543-27] | 27% |  | IC50 (TF-VIIa; [3]): 380 nM
CCNc1nc(Cl)c(-c2cccc(N)c2)n(CC(=O)NCc2ccc(C(=N)N)cc2F)c1=O [1543-31] | 8% |  | IC50 (TF-VIIa; [3]): 40 nM
N=C(N)c1ccc(CNC(=O)Cn2c(-c3cccc(N)c3)c(Cl)nc(NC3CC3)c2=O)c(F)c1 [1543-33] | 14% |  | IC50 (TF-VIIa; [3]): 30 nM
N=C(N)c1ccc(CNC(=O)Cn2c(-c3cccc(N)c3)c(Cl)nc(NC3CCCC3)c2=O)c(F)c1 [1543-34] | 20% |  | IC50 (TF-VIIa; [3]): 80 nM
CCCNc1nc(Cl)c(-c2cccc(N)c2)n(CC(=O)NCc2ccc(C(=N)N)cc2F)c1=O [1543-35] | 8% |  | IC50 (TF-VIIa; [3]): 70 nM
CCCCNc1nc(Cl)c(-c2cccc(N)c2)n(CC(=O)NCc2ccc(C(=N)N)cc2F)c1=O [1543-36] | 15% |  | IC50 (TF-VIIa; [3]): 80 nM
CC(C)CNc1nc(Cl)c(-c2cccc(N)c2)n(CC(=O)NCc2ccc(C(=N)N)cc2F)c1=O [1543-38] | 14% |  | IC50 (TF-VIIa; [3]): 90 nM
CC(C)Nc1nc(Cl)c(-c2cccc(N)c2)n(CC(=O)NCc2ccc(C(=N)N)cc2F)c1=O [1543-40] | 10% |  | IC50 (TF-VIIa; [3]): 40 nM
N=C(N)c1ccc(CNC(=O)Cn2c(Cc3ccccc3)c(Cl)nc(NCCc3ccccc3)c2=O)cc1 [Example 20] | 6%@30 |  | IC50 or % Inhibition TF-VIIa (30 µM) (TF-VIIa): 41%@30
N=C(N)NCC#CCNC(=O)Cn1c(-c2ccccc2)cnc(NCCc2ccccc2)c1=O [Example 36] | 0% |  | IC50 or % Inhibition TF-VIIa (30 µM) (TF-VIIa): 5%
N=C(N)NC/C=C\CNC(=O)Cn1c(-c2ccccc2)cnc(NCCc2ccccc2)c1=O [Example 37] | 0% | 1800 | 
Nc1n[nH]c2ccc(CNC(=O)Cn3c(-c4ccccc4)cnc(NCCc4ccccc4)c3=O)cc12 [Example 38] | 22% | 900 | 
Nc1n[nH]c2cc(CNC(=O)Cn3c(-c4ccccc4)cnc(NCCc4ccccc4)c3=O)ccc12 [Example 39] | 0% | 1700 | 
N=C(N)c1ccc(CNC(=O)Cn2c(-c3cccc(N)c3)c(Cl)nc(NC3CCC3)c2=O)cc1F [Example 40] | 0% |  | IC50 (TF-VIIa; [2]): 60 nM
CC(C)Nc1nc(Cl)c(-c2cccc(N)c2)n(CC(=O)NCc2ccc(C(=N)N)c(F)c2)c1=O [Example 42] | 0% | 500 | 
CC(C)Nc1ncc(-c2cccc(N)c2)n(CC(=O)NCc2ccc(C(=N)N)c(F)c2)c1=O [Example 43] | 0% | 250 | 
CC(C)Nc1nc(Cl)c(-c2cccc([N+](=O)[O-])c2)n(CC(=O)NCc2ccc(C(N)=NO)cc2)c1=O [Example 61] | 0% |  | IC50 or % Inhibition TF-VIIa (30 µM) (TF-VIIa): 1%
CC(C)Nc1nc(Cl)c(-c2cccc(N)c2)n(CC(=O)NCCc2ccc(C(=N)N)cc2)c1=O [Example 62] | 10% | 5600 | 
COC(=O)c1cccc(-c2c(Cl)nc(NC(C)C)c(=O)n2CC(=O)NCc2ccc(C(=N)N)cc2)c1 [Example 64] | 19% |  | IC50 (TF-VIIa; [2]): 780 nM
CC(C)Nc1nc(Cl)c(-c2cccc(C(=O)O)c2)n(CC(=O)NCc2ccc(C(=N)N)cc2)c1=O [Example 65] | 12% |  | IC50 (TF-VIIa; [2]): 360 nM
N=C(N)c1ccc(CNC(=O)Cn2c(-c3ccccc3O)c(Cl)nc(NC3CCC3)c2=O)cc1 [Example 66] | 0% |  | IC50 (TF-VIIa; [2]): 340 nM
CC(=O)Nc1cccc(-c2c(Cl)nc(NC(C)C)c(=O)n2CC(=O)NCCc2ccc(C(=N)N)cc2)c1 [Example 68] | 6% |  | IC50 or % Inhibition TF-VIIa (30 µM) (TF-VIIa): 32%
Cc1c(Cl)nc(NCc2ccccc2)c(=O)n1CC(=O)NCCc1ccncc1 [Example E-0001] |  |  | % Inhibition Factor Xa (100 µM) (Human factor Xa): 1%; % Inhibition TF-VIIa (100 µM) (TF-VIIa): 0%
